Our source for the GI50 and TGI values is PubChem BioAssay (NCI).

Molecules are shown by their SMILES.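 Dose response: 5 concentrations. Exposure: 48 h. Format: 96-well plates. Endpoint: linear interpolation; highest concentration if not reached. Abbreviation: GI50, concentration required for 50% inhibition of growth. TGI: total growth inhibition.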 A value given as a limit tells only on which side of the number the result lay.

Test systems include HS 578T breast; CCRF-CEM leukemia; CAKI-1 renal; KM12 colon; COLO 205 colon; HCC-2998 colon; TK-10 renal; U251 CNS; MCF7 breast; BT-549 breast.
Assay in all cases: inhibition of tumour cell growth, NCI panel, 48 h

For the molecule `O=C(CN(/C=C/C(=O)C(F)(F)F)c1ccc(Cl)cc1)c1ccccc1`, the GI50 is 24.3 µM in the test with HS 578T breast; 8.8 µM with CCRF-CEM leukemia; 0.933 µM in the test on CAKI-1 renal; 10.8 µM with KM12 colon; 15.3 µM with COLO 205 colon; 7.93 µM with HCC-2998 colon. The GI50 in the test with TK-10 renal was 7.88 µM; in the test with U251 CNS, 15.8 µM; with MCF7 breast, more than 100 µM; with BT-549 breast, 20.5 µM. In addition, the TGI with HS 578T breast was 68.1 µM; with CCRF-CEM leukemia it was 33.5 µM; in the test on CAKI-1 renal it was 22.8 µM; in the test on KM12 colon, 36.6 µM; in the test with COLO 205 colon, more than 100 µM; in the test with HCC-2998 colon, 21.1 µM. The TGI with TK-10 renal was 37.2 µM; in the test with U251 CNS, 30.8 µM; in the test on MCF7 breast, more than 100 µM; in the test on BT-549 breast, 41.4 µM.

`CC(=O)c1cc(C(=O)c2ccc3c(c2)Sc2ccccc2N3)c2c(C)cc(C)cn12`: the GI50 in the test with HS 578T breast is 0.343 µM; in the test with CCRF-CEM leukemia, 0.277 µM; with CAKI-1 renal it was 0.529 µM; in the test with KM12 colon it was 0.353 µM; in the test with COLO 205 colon, 0.222 µM; in the test with HCC-2998 colon, 0.494 µM. The GI50 in the test on TK-10 renal is 1.31 µM; in the test on U251 CNS it was 0.396 µM; in the test on MCF7 breast, 0.239 µM; with BT-549 breast, 0.368 µM. Further, the TGI in the test with HS 578T breast was more than 36 µM; in the test on CCRF-CEM leukemia, more than 100 µM; with CAKI-1 renal it was 72.9 µM; in the test with KM12 colon it was more than 46.7 µM; with COLO 205 colon, 0.535 µM; with HCC-2998 colon, more than 100 µM. In addition, the TGI with TK-10 renal is more than 100 µM; in the test with U251 CNS it was more than 100 µM; in the test with MCF7 breast, more than 100 µM; in the test with BT-549 breast it was more than 21.3 µM.

As for `Nc1nc(OCc2cc(Br)cs2)c2[nH]cnc2n1`, the GI50 is 25.6 µM in the test with HS 578T breast; 37.5 µM with CCRF-CEM leukemia; 9.94 µM in the test with CAKI-1 renal; 23.2 µM with KM12 colon; 34 µM in the test with COLO 205 colon; 36.2 µM in the test with HCC-2998 colon. The GI50 is 10.2 µM in the test with TK-10 renal, 28.8 µM with U251 CNS, 25.7 µM in the test with MCF7 breast and 15.7 µM in the test on BT-549 breast. Moreover, the TGI is 83.7 µM in the test with HS 578T breast; more than 100 µM in the test with CCRF-CEM leukemia; 79.6 µM with CAKI-1 renal; more than 100 µM in the test on KM12 colon; more than 100 µM with COLO 205 colon; more than 100 µM with HCC-2998 colon. Besides, the TGI is 62.9 µM in the test with TK-10 renal, more than 100 µM in the test with U251 CNS, more than 100 µM in the test with MCF7 breast and 63.9 µM in the test on BT-549 breast.

Consider `NC(=O)c1ccc(NN=O)nc1`, for which the TGI with HS 578T breast, in the test with CCRF-CEM leukemia, with CAKI-1 renal, in the test on KM12 colon, in the test on COLO 205 colon and in the test with HCC-2998 colon was more than 100 µM each time. The TGI with TK-10 renal, in the test on U251 CNS, in the test with MCF7 breast and in the test on BT-549 breast was more than 100 µM each time.

As for `C[C@]12CC[C@H](O)C[C@H]1CC[C@@H]1[C@@H]2CC[C@]2(C)[C@@H](C3=CC(=O)OC3)[C@@H](O)C[C@]12O`, the TGI with HS 578T breast is more than 21.8 µM; in the test on CCRF-CEM leukemia, 2.42 µM; in the test on CAKI-1 renal it was 3.15 µM; with KM12 colon, 18.2 µM; with COLO 205 colon, 7.18 µM; in the test on HCC-2998 colon, 6.7 µM. The TGI is 1.99 µM in the test on TK-10 renal, 5.08 µM with U251 CNS, 11.1 µM in the test with MCF7 breast and 7.32 µM with BT-549 breast.

For `COc1cc2nc(SCC(=O)Nc3cc(OC)c(OC)c(OC)c3)n(Cc3ccccc3)c(=O)c2cc1OC`, the GI50 with HS 578T breast is 2.46 µM; in the test with CCRF-CEM leukemia it was more than 100 µM; in the test on CAKI-1 renal, 3.05 µM; with KM12 colon, more than 100 µM; in the test on COLO 205 colon, 15.3 µM; in the test with HCC-2998 colon, 50.6 µM. Besides, the GI50 with TK-10 renal is 4.06 µM; in the test on U251 CNS it was 3.18 µM; in the test on MCF7 breast, 7.93 µM; in the test on BT-549 breast, 2.02 µM. Also, the TGI in the test on HS 578T breast was 9.45 µM; in the test on CCRF-CEM leukemia, more than 100 µM; with CAKI-1 renal, 28.8 µM; in the test with KM12 colon, more than 100 µM; in the test on COLO 205 colon, 33 µM; in the test on HCC-2998 colon, more than 100 µM. Besides, the TGI is 21.5 µM with TK-10 renal, 11.2 µM with U251 CNS, more than 100 µM in the test with MCF7 breast and 5.61 µM with BT-549 breast.

With `CCOC(=O)n1cc(C2=C(c3cn(C)c4ccccc34)COC2=O)c2ccccc21`, the GI50 in the test on HS 578T breast is 0.116 µM; with CCRF-CEM leukemia, 0.218 µM; with CAKI-1 renal, 0.0492 µM; in the test on KM12 colon it was 0.0471 µM; in the test on COLO 205 colon, 0.241 µM; with HCC-2998 colon it was 0.167 µM. Moreover, the GI50 was 10 µM in the test on TK-10 renal, 0.274 µM in the test on U251 CNS, 0.032 µM in the test with MCF7 breast and 0.145 µM with BT-549 breast. The TGI in the test with HS 578T breast was 21.1 µM; with CCRF-CEM leukemia, more than 100 µM; in the test with CAKI-1 renal it was 18.5 µM; in the test on KM12 colon, more than 100 µM; in the test with COLO 205 colon it was 2.41 µM; in the test on HCC-2998 colon, more than 100 µM. The TGI in the test with TK-10 renal is 31 µM; with U251 CNS, 22.1 µM; in the test with MCF7 breast it was more than 100 µM; in the test on BT-549 breast it was 11.1 µM.
